Where a name gives a salt, the structure may show the parent alone. Read-outs that look alike come from different tables or passages of the source.
Experiments:
HeLa cells = experiment: Cytotoxicity testing (CC50, MTS assay)
[1] = Pharmacokinetic study in mice (plasma concentration by LC/MS/MS)
CYP2C19 = CYP2C19 (Homo sapiens, UniProt P33261); experiment: P450 enzyme inhibition (IC50 fluorescence); assay type: in vitro ADME; conditions: substrate CEC: 3-cyano-7-ethoxycoumarin
CYP2D6 = CYP2D6 (Homo sapiens, UniProt P10635); experiment: P450 enzyme inhibition (IC50 fluorescence); assay type: in vitro ADME; conditions: substrate AMMC
Sequence of CYP2D6 (P10635 whole entry): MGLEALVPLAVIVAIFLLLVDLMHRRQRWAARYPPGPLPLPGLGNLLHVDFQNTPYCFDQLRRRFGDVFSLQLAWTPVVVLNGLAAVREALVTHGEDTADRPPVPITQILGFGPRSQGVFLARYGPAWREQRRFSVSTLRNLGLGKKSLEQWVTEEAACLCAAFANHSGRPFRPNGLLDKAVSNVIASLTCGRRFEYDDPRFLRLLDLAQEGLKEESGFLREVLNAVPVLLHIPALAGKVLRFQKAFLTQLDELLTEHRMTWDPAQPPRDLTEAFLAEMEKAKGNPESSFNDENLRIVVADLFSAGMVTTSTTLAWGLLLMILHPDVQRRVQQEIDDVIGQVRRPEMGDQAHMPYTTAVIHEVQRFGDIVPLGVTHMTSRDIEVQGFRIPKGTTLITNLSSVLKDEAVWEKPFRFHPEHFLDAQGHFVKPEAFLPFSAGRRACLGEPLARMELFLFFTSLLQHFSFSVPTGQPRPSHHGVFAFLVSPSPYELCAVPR

in vivo = conditions: male, iv, […]
CYP3A4 = CYP3A4 (Homo sapiens, UniProt P08684); experiment: P450 enzyme inhibition (IC50 fluorescence); assay type: in vitro ADME
Sequence of CYP3A4 (P08684 whole entry): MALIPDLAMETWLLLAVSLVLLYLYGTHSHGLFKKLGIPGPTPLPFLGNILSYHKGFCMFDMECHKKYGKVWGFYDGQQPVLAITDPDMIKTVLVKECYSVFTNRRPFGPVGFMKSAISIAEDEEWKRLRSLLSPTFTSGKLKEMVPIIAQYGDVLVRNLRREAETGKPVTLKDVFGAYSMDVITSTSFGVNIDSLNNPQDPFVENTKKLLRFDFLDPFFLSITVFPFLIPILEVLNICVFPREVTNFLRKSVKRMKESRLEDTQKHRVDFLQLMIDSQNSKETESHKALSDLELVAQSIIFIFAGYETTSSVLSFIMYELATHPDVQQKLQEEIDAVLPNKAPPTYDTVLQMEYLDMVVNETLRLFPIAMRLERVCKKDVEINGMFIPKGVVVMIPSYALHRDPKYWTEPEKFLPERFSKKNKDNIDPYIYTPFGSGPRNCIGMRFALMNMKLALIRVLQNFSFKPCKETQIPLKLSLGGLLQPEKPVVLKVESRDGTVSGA

[2] = Maximum Tolerated Dose (MTD) and in vivo toxicity at the MTD; conditions: mouse, in vivo, ip
[3] = Plasma / serum stability (LC/MS/MS); assay type: in vitro ADME; conditions: 10 μg/mL, 50% serum
Enterococcus faecium = experiment: Antibacterial activity assay (MIC, broth dilution); assay type: cell-based; design: Bacterial Killing E. faecium: unit: ug/mL; conditions: for MIC: Enterococcus faecium
Summary of the method: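 Broth dilution MIC per CLSI (M07-A10) in cation-adjusted Mueller Hinton broth with 10% brain-heart infusion; MIC is the lowest concentration preventing visible growth, in μg/mL. Some compounds were run by broth microdilution.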

Escherichia coli = experiment: Antibacterial activity assay (MIC, broth dilution); assay type: cell-based; conditions: determined as in Example 1E (MIC)
Enterococcus faecalis = experiment: Antibacterial activity assay (MIC, broth dilution); assay type: cell-based; conditions: Enterococcus faecalis
Staphylococcus aureus = experiment: Antibacterial activity assay (MIC, broth dilution); assay type: cell-based; design: S. aureus Killing / Bacterial Killing S. aureus: unit not given here; conditions: determined as in Example 1E (MIC)
[4] = CD1, mouse, in vivo
[5] = IV administration, single dose […], mice (n=3)
[6] = PO administration, single oral dose 5 mg/kg, mice (n=3)
[7] = comparator values repeated from Table 4 (IV, […])

Sequence of CYP2C19 (P33261 whole entry): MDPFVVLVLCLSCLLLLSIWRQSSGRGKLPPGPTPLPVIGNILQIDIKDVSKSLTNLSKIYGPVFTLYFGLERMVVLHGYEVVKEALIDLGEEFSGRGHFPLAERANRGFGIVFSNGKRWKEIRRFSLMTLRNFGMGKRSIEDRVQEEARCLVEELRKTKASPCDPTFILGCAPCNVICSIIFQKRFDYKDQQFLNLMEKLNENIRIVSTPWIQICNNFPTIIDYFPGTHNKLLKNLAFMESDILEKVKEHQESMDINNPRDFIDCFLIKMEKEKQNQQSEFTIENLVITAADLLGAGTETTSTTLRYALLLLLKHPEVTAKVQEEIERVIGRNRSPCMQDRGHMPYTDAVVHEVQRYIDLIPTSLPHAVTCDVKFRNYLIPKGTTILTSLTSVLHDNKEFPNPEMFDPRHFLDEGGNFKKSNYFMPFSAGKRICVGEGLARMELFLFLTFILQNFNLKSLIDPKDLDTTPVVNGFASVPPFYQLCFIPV

Question: Which results are given for `CN(C)c1ccc(/C=C/c2cc(-c3ccc(Br)cc3)cc(-c3ccc(Br)cc3)[o+]2)cc1` [Compound 6jc48-1, (E)-2,4-bis(4-bromophenyl)-6-(4-(dimethylamino)styryl)pyrylium boron tetrafluoride salt]?
Answer: reduction in cytotoxicity compared to the parent BAS00127538 (HeLa cells): 50 fold; AUClast/D [1, 5]: 536 ± 47 mg·h/mL; Cl_obs [1, 5]: 23.6 ± 1.7 mL/min/kg; T1/2 [1, 5]: 13.3 ± 1.8 h; AUCInf [1, 6]: 90 ng·h/mL; AUClast [1, 6]: 46.9 ng·h/mL; Cmax [1, 6]: 19.1 ng/mL; Finf (inferred bioavailability) [1, 6]: 2.54%; Flast (bioavailability at last time point) [1, 6]: 1.9%; T1/2 [1, 6]: 2.78 h; Cl—obs [1, 7]: 23.6 ± 1.7 mL/min/kg; T1/2 [1, 7]: 13.3 ± 1.8 h; IC50 (CYP2C19): > 10 µM; IC50 (CYP2D6): > 10 µM; Vd (in vivo; CD1, mouse, plasma): ~23 L/kg; Vd (in vivo; mouse, in vivo): 22.8 ± 2.9 L/kg; IC50 (CYP3A4; substrate BFC: 7-benzoyloxy-4-triflluoromethyl coumarin, read-out: P450 enzyme inhibition (IC50 fluorescence) CYP3A4/BFC): 1.3 µM; IC50 (CYP3A4; substrate DBF: dibenzylfluorescein, read-out: P450 enzyme inhibition (IC50 fluorescence) CYP3A4/DBF): > 10 µM; MTD [2]: ≤ 100 mg/kg; stability in serum ([3]; after 2 hours): stable after 2 hours in serum; compound remaining ([3]; after 19 hours): 46%; MIC (Enterococcus faecium; cation-adjusted Mueller Hinton broth, 10% BHI, read-out: MIC E. faecium C110914): 4 µg/mL; MIC (Enterococcus faecium; cation-adjusted Mueller Hinton broth, 10% BHI, read-out: MIC E. faecium IH79985): 8 µg/mL; MIC (Enterococcus faecium; cation-adjusted Mueller Hinton broth, 10% BHI, read-out: MIC E. faecium S1559): 2 µg/mL; MIC (Enterococcus faecium; clinical isolates sensitive to linezolid and daptomycin, n = 5, read-out: MIC E. faecium* clinical isolates): 4 to 16 µg/mL; Bacterial Killing E. faecium (Enterococcus faecium; determined as in Example 1E (MIC)): 4; Bacterial Killing E. coli (Escherichia coli): >64; MIC (Enterococcus faecalis; MIC quoted with the macromolecular synthesis data (FIG. 11), strain not given, MMS run on E. faecalis EF1509, read-out: MIC): 4 µg/mL; MIC (Enterococcus faecalis; cation-adjusted Mueller Hinton broth, 10% BHI, read-out: MIC E. faecalis 51299): 4 µg/mL; MIC (Enterococcus faecalis; cation-adjusted Mueller Hinton broth, 10% BHI, read-out: MIC E. faecalis 51575): 2 µg/mL; MIC (Enterococcus faecalis; cation-adjusted Mueller Hinton broth, 10% BHI, read-out: MIC E. faecalis C99707): 2 µg/mL; MIC (Enterococcus faecalis; clinical isolates sensitive to linezolid and daptomycin, n = 5, read-out: MIC E. faecalis* clinical isolates): 4 to 16 µg/mL; Bacterial Killing S. aureus (Staphylococcus aureus): 16; AUCextrap ([4]; po, 5 mg/kg): 48.6%; Vss_obs ([4]; po, 5 mg/kg): 1.75 L/kg; Volume of distribution at equilibrium (Vs) ([4]; male, iv, […]): 22.8; Vss_obs ([4]; male, iv, […]): 22.8 ± 2.9 L/kg
